Assay results from US20130090334A1, “AZABENZOXAZINE DERIVATIVES AS CRAC MODULATORS” (Hoffmann-La Roche Inc, priority 2011, published 2013).

System: Jurkat cell
Experiment: Jurkat IL-2 Production Assay
Type: cell-based
Details: Homo sapiens, serum condition (1% FBS/PHA or 30% FBS/PMA-ionomycin) not specified
Protocol: Jurkat IL-2 Production Assay
Cell: Jurkat cell (ATCC) was grown in RPMI 1640 with 10% FBS and 1% penicillin/streptomycin. The cell density was kept at 1.2˜18×10^6/mL in culture flask before seeding into culture plate, and the cell density in the plate was 0.5×10^6/200 μL/well.
Culture media: RPMI 1640 with 1% FBS or 30% FBS for high serum assay.
Test compound: serial dilution was done in 100% DMSO, and intermediate dilution was done with RPMI 1640 medium with 1% FBS. The DMSO final concentration in culture well was 0.25%.
Stimulant: PHA (Sigma#L9017-10MG) was used for the assay with 1% F/BS in culture medium, and added after 10 minutes exposure of cell to compound/DMSO. The PHA final concentration in culture well was 5 μg/mL. PMA (Sigma#P-8139 5MG)/Ionomycin (Sigma# I0634-5MG) was used for the assay with 30% FBS in culture medium, and added at same time point as the 1% FBS culture assay. The final concentration of PMA was […], and lonomycin final concentration was 500 ng/mL.
Incubation: at 37° C. with 5% CO2 and 95% humidity for 18 h˜20 h.
IC50: IC50 was calculated with the data analysis software XLfit4, General Pharmacology model 251.

IC50 [µM]	Structure (SMILES)
0.14	CCn1nc(C(F)(F)F)cc1-c1cnc2c(c1)OCC(c1c(F)cccc1F)N2 (stereo not shown) [Example 1, 3-(2,6-Difluoro-phenyl)-7-(2-ethyl-5-trifluoromethyl-2H-pyrazol-3-yl)-3,4-dihydro-2H-pyrido[3,2-b][1,4]oxazine]

System: human whole blood
Experiment: Human Whole Blood (HWB) Assay, inhibition of T cell IL-2 production
Type: cell-based
Details: IL-2 in plasma, human whole blood stimulated with 10 μM Thapsigargin overnight, AlphaLISA
Protocol: Human Whole Blood (HWB) Assay
Inhibition of T cell IL-2 production CRAC compounds were tested in human whole blood from normal donors. 200 μl of human whole blood was aliquoted into each well of a round bottom 96 well plate. Concentration-response curves were generated for test compounds and CsA (as controls) by performing serial dilutions of the compounds and incubating each concentration in a single well for 30 min (experiment was performed in triplicate). Following incubation, the blood was stimulated with 10 μM Thapsigargin (SIGMA) overnight at 37° C. IL-2 concentrations in the plasma were determined by AlphaLISA IL-2 assay (Perkin Elmer). Data analysis was performed using GraphPad PRISM5.

Structure (SMILES)	IC50 [µM]
Cc1sc(-c2ccccn2)nc1-c1cnc2c(c1)OCC(c1c(F)cccc1F)N2 (stereo not shown) [Example 4, 3-(2,6-Difluoro-phenyl)-7-(5-methyl-2-pyridin-2-yl-thiazol-4-yl)-3,4-dihydro-2H-pyrido[3,2-b][1,4]oxazine]	6.3
Cc1sc(-c2ccncc2)nc1-c1cnc2c(c1)OCC(c1c(F)cccc1F)N2 (stereo not shown) [Example 6, 3-(2,6-Difluoro-phenyl)-7-(5-methyl-2-pyridin-4-yl-thiazol-4-yl)-3,4-dihydro-2H-pyrido[3,2-b][1,4]oxazine]	4.52
Cc1ccc(-c2ncco2)cc1-c1cnc2c(c1)OCC(c1c(F)cccc1F)N2 (stereo not shown) [Example 7, 3-(2,6-Difluoro-phenyl)-7-(2-methyl-5-oxazol-2-yl-phenyl)-3,4-dihydro-2H-pyrido[3,2-b][1,4]oxazine]	8.16

Further lines, results first:

IC50 [µM]	Structure (SMILES)
2.68	CCn1nc(-c2cccnc2)cc1-c1cnc2c(c1)OCC(c1c(F)cccc1F)N2 (stereo not shown) [Example 2, 3-(2,6-Difluoro-phenyl)-7-(2-ethyl-5-pyridin-3-yl-2H-pyrazol-3-yl)-3,4-dihydro-2H-pyrido[3,2-b][1,4]oxazine]
2.4	CCn1nc(-c2cnccn2)cc1-c1cnc2c(c1)OCC(c1c(F)cccc1F)N2 (stereo not shown) [Example 3, 3-(2,6-Difluoro-phenyl)-7-(2-ethyl-5-pyrazin-2-yl-2H-pyrazol-3-yl)-3,4-dihydro-2H-pyrido[3,2-b][1,4]oxazine]
0.56	CCc1sc(-c2cccnc2)nc1-c1cnc2c(c1)OCC(c1c(F)cccc1F)N2 (stereo not shown) [Example 5, 3-(2,6-Difluoro-phenyl)-7-(5-ethyl-2-pyridin-3-yl-thiazol-4-yl)-3,4-dihydro-2H-pyrido[3,2-b][1,4]oxazine]
